Laboratory results taken from patent publication US7211572B2 (Japan Tobacco Inc., priority 2003, dated 2007).
Where a name gives a salt, the structure may show the parent alone.

target: T1, HIV integrase (Human immunodeficiency virus type 1 group M subtype B, UniProt P12497, F1332H); test: Determination of enzyme (HIV integrase) inhibitory activity; type: biochemical; details: recombinant HIV integrase (F185H), strand transfer ELISA, absorbance at 450 nm
T1 construct: HIV integrase full length gene; made in house; host or cells: Escherichia coli BL21(DE3), plasmid pET21a-INH
How it was run: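 Full-length integrase with F185H, expressed in E. coli and purified, was reacted for 60 min at 37 °C with compound and biotinylated donor DNA bound to streptavidin plates. Target DNA was added for 10 min, then anti-digoxigenin-peroxidase detection at A450; IC50 from % inhibition versus enzyme-free blank.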

Compound	IC50
CC(C)(C(=O)Nc1cn2ccn(Cc3cccc(Cl)c3)c(=O)c2c(O)c1=O)c1ccccc1 [Example 277, N-[2-(3-chlorobenzyl)-9-hydroxy-1,8-dioxo-1,8-dihydro-2H-pyrido[1,2-a]pyrazin-7-yl]-2-phenylisobutyramide]	< 10 nM
O=C(Nc1cn2ccn(Cc3cccc(Cl)c3)c(=O)c2c(O)c1=O)c1ccc(F)cc1 [Example 278, N-[2-(3-chlorobenzyl)-9-hydroxy-1,8-dioxo-1,8-dihydro-2H-pyrido[1,2-a]pyrazin-7-yl]-4-fluorobenzamide]	< 10 nM
O=C(Nc1cn2ccn(Cc3cccc(Cl)c3)c(=O)c2c(O)c1=O)c1ccccn1 [Example 279, N-[2-(3-chlorobenzyl)-9-hydroxy-1,8-dioxo-1,8-dihydro-2H-pyrido[1,2-a]pyrazin-7-yl]pyridine-2-carboxamide trifluoroacetate]	< 10 nM
CC(C)Nc1cn2ccn(Cc3cccc(Cl)c3)c(=O)c2c(O)c1=O [Example 280, 2-(3-chlorobenzyl)-9-hydroxy-7-isopropylamino-2H-pyrido [1,2-a]pyrazine-1,8-dione hydrochloride]	10 to 100 nM
CCN(CC)c1cn2ccn(Cc3cccc(Cl)c3)c(=O)c2c(O)c1=O [Example 281, 2-(3-chlorobenzyl)-7-diethylamino-9-hydroxy-2H-pyrido[1,2-a]pyrazine-1,8-dione hydrochloride]	10 to 100 nM
O=C1c2c(O)c(=O)c(-c3ccccn3)cn2CCN1Cc1cccc(Cl)c1 [Example 282, 2-(3-chlorobenzyl)-9-hydroxy-7-(pyridin-2-yl)-3,4-dihydro-2H-pyrido[1,2-a]pyrazine-1,8-dione hydrochloride]	< 10 nM
CC(C)CNc1cn2ccn(Cc3cccc(Cl)c3)c(=O)c2c(O)c1=O [Example 283, 2-(3-chlorobenzyl)-9-hydroxy-7-isobutylamino-2H-pyrido[1,2-a]pyrazine-1,8-dione hydrochloride]	10 to 100 nM
CC(C)C(C(=O)Nc1cn2ccn(Cc3cccc(Cl)c3)c(=O)c2c(O)c1=O)C(C)C [Example 284, N-[2-(3-chlorobenzyl)-9-hydroxy-1,8-dioxo-1,8-dihydro-2H-pyrido[1,2-a]pyrazin-7-yl] -2-isopropyl-3-methylbutyramide]	10 to 100 nM
CCNc1cn2ccn(Cc3cccc(Cl)c3)c(=O)c2c(O)c1=O [Example 285, 2-(3-chlorobenzyl)-7-ethylamino-9-hydroxy-2H-pyrido[1,2-a]pyrazine-1,8-dione hydrochloride]	10 to 100 nM
O=C(Nc1cn2ccn(Cc3cccc(Cl)c3)c(=O)c2c(O)c1=O)c1cccnc1 [Example 286, N-[2-(3-chlorobenzyl)-9-hydroxy-1,8-dioxo-1,8-dihydro-2H-pyrido[1,2-a]pyrazin-7-yl]nicotinamide trifluoroacetate]	< 10 nM
O=C(Nc1cn2ccn(Cc3cccc(Cl)c3)c(=O)c2c(O)c1=O)c1ccncc1 [Example 287, N-[2-(3-chlorobenzyl)-9-hydroxy-1,8-dioxo-1,8-dihydro-2H-pyrido[1,2-a]pyrazin-7-yl]isonicotinamide trifluoroacetate]	< 10 nM
O=C(Nc1cn2ccn(Cc3cccc(Cl)c3)c(=O)c2c(O)c1=O)c1ccco1 [Example 288, N-[2-(3-chlorobenzyl)-9-hydroxy-1,8-dioxo-1,8-dihydro-2H-pyrido[1,2-a]pyrazin-7-yl]furan-2-carboxamide]	< 10 nM
O=C(Nc1cn2ccn(Cc3cccc(Cl)c3)c(=O)c2c(O)c1=O)c1cccs1 [Example 289, N-[2-(3-chlorobenzyl)-9-hydroxy-1,8-dioxo-1,8-dihydro-2H-pyrido[1,2-a]pyrazin-7-yl]thiophene-2-carboxamide]	< 10 nM
O=C1c2c(O)c(=O)c(-c3cccnn3)cn2CCN1Cc1cccc(Cl)c1 [Example 290, 2-(3-chlorobenzyl)-9-hydroxy-7-(pyridazin-3-yl)-3,4-dihydro-2H-pyrido[1,2-a]pyrazine-1,8-dione hydrochloride]	10 to 100 nM
O=C1c2c(O)c(=O)c(-c3nccs3)cn2CCN1Cc1ccc(F)c(F)c1 [Example 291, 2-(3,4-difluorobenzyl)-9-hydroxy-7-(thiazol-2-yl)-3,4-dihydro-2H-pyrido[1,2-a]pyrazine-1,8-dione]	10 to 100 nM
O=C1c2c(O)c(=O)c(-c3nccs3)cn2CCN1Cc1cccc(Cl)c1F [Example 292, 2-(3-chloro-2-fluorobenzyl)-9-hydroxy-7-(thiazol-2-yl)-3,4-dihydro-2H-pyrido[1,2-a]pyrazine-1,8-dione]	< 10 nM
O=C1c2c(O)c(=O)c(-c3nccs3)cn2CCN1Cc1ccc(Cl)cc1 [Example 293, 2-(4-chlorobenzyl)-9-hydroxy-7-(thiazol-2-yl)-3,4-dihydro-2H-pyrido[1,2-a]pyrazine-1,8-dione]	10 to 100 nM
O=C1c2c(O)c(=O)c(-c3nccs3)cn2CCN1Cc1ccc(Cl)c(F)c1 [Example 294, 2-(4-chloro-3-fluorobenzyl)-9-hydroxy-7-(thiazol-2-yl)-3,4-dihydro-2H-pyrido[1,2-a]pyrazine-1,8-dione]	< 10 nM

Compound	IC50
COc1cc(Cl)ccc1CN1CCn2cc(-c3nccs3)c(=O)c(O)c2C1=O [Example 295, 2-(4-chloro-2-methoxybenzyl)-9-hydroxy-7-(thiazol-2-yl)-3,4-dihydro-2H-pyrido[1,2-a]pyrazine-1,8-dione]	10 to 100 nM
Cn1cccc1C(=O)Nc1cn2ccn(Cc3cccc(Cl)c3)c(=O)c2c(O)c1=O [Example 296, N-[2-(3-chlorobenzyl)-9-hydroxy-1,8-dioxo-1,8-dihydro-2H-pyrido[1,2-a]pyrazin-7-yl]-1-methyl-1H-pyrrole-2-carboxamide]	< 10 nM
O=C1c2c(O)c(=O)c(-c3nccs3)cn2CCN1CCCc1ccc(Cl)cc1 [Example 297, 2-[3-(4-chlorophenyl)propyl]-9-hydroxy-7-(thiazol-2-yl)-3,4-dihydro-2H-pyrido[1,2-a]pyrazine-1,8-dione hydrochloride]	10 to 100 nM
O=C1c2c(O)c(=O)c(-c3nccs3)cn2CCN1CCCc1ccccc1Cl [Example 298, 2-[3-(2-chlorophenyl)propyl]-9-hydroxy-7-(thiazol-2-yl)-3,4-dihydro-2H-pyrido[1,2-a]pyrazine-1,8-dione hydrochloride]	< 10 nM
O=C1c2c(O)c(=O)c(-c3nccs3)cn2CCN1CCCc1cccc(Cl)c1 [Example 299, 2-[3-(3-chlorophenyl)propyl]-9-hydroxy-7-(thiazol-2-yl)-3,4-dihydro-2H-pyrido[1,2-a]pyrazine-1,8-dione hydrochloride]	10 to 100 nM
Cc1nsc(-c2cn3c(c(O)c2=O)C(=O)N(Cc2cccc(Cl)c2)CC3)n1 [Example 300, 2-(3-chlorobenzyl)-9-hydroxy-7-(3-methyl-1,2,4-thiadiazol-5-yl)-3,4-dihydro-2H-pyrido[1,2-a]pyrazine-1,8-dione hydrochloride]	10 to 100 nM
CNC(=O)c1cc(F)ccc1CN1CCn2cc(-c3nccs3)c(=O)c(O)c2C1=O [Example 301, 5-fluoro-2-[9-hydroxy-1,8-dioxo-7-(thiazol-2-yl)-1,3,4,8-tetrahydro-pyrido[1,2-a]pyrazin-2-ylmethyl]-N-methylbenzamide]	100 to 1000 nM
CC(=O)N(CC(C)C)c1cn2ccn(Cc3cccc(Cl)c3)c(=O)c2c(O)c1=O [Example 302, N-[2-(3-chlorobenzyl)-9-hydroxy-1,8-dioxo-1,8-dihydro-2H-pyrido[1,2-a]pyrazin-7-yl]-N-isobutylacetamide]	10 to 100 nM
CC(=O)Nc1cn2ccn(Cc3ccc(F)cc3)c(=O)c2c(O)c1=O [Example 303, N-[2-(4-fluorobenzyl)-9-hydroxy-1,8-dioxo-1,8-dihydro-2H-pyrido[1,2-a]pyrazin-7-yl]acetamide]	10 to 100 nM
O=C(Nc1cn2ccn(Cc3ccc(F)cc3)c(=O)c2c(O)c1=O)c1ccccc1 [Example 304, N-[2-(4-fluorobenzyl)-9-hydroxy-1,8-dioxo-1,8-dihydro-2H-pyrido[1,2-a]pyrazin-7-yl]benzamide]	< 10 nM
CS(=O)(=O)Nc1cn2ccn(Cc3ccc(F)cc3)c(=O)c2c(O)c1=O [Example 305, N-[2-(4-fluorobenzyl)-9-hydroxy-1,8-dioxo-1,8-dihydro-2H-pyrido[1,2-a]pyrazin-7-yl]methanesulfonamide]	< 10 nM
O=c1c(-c2ccccn2)cn2ccn(Cc3ccc(F)cc3)c(=O)c2c1O [Example 306, 2-(4-fluorobenzyl)-9-hydroxy-7-(pyridin-2-yl)-2H-pyrido[1,2-a]pyrazine-1,8-dione trifluoroacetate]	10 to 100 nM
O=C1c2c(O)c(=O)c(-c3nccs3)cn2CCN1Cc1ccccc1F [Example 307, 2-(2-fluorobenzyl)-9-hydroxy-7-(thiazol-2-yl)-3,4-dihydro-2H-pyrido[1,2-a]pyrazine-1,8-dione]	100 to 1000 nM
O=C1c2c(O)c(=O)c(-c3nccs3)cn2CCN1Cc1cccc(F)c1 [Example 308, 2-(3-fluorobenzyl)-9-hydroxy-7-(thiazol-2-yl)-3,4-dihydro-2H-pyrido[1,2-a]pyrazine-1,8-dione]	10 to 100 nM
O=C1c2c(O)c(=O)c(-c3nccs3)cn2CCN1Cc1ccc(F)cc1 [Example 309, 2-(4-fluorobenzyl)-9-hydroxy-7-(thiazol-2-yl)-3,4-dihydro-2H-pyrido[1,2-a]pyrazine-1,8-dione]	10 to 100 nM
O=C1c2c(O)c(=O)c(-c3nccs3)cn2CCN1Cc1ccccc1Cl [Example 310, 2-(2-chlorobenzyl)-9-hydroxy-7-(thiazol-2-yl)-3,4-dihydro-2H-pyrido[1,2-a]pyrazine-1,8-dione]	100 to 1000 nM
O=C1c2c(O)c(=O)c(-c3nccs3)cn2CCN1Cc1ccc2ccccc2c1 [Example 311, 9-hydroxy-2-(naphthalen-2-ylmethyl)-7-(thiazol-2-yl)-3,4-dihydro-2H-pyrido[1,2-a]pyrazine-1,8-dione]	< 10 nM
